Data published in ChEMBL document CHEMBL1201862, “PubChem BioAssay data set” (2004).
Blank lines part the entries; values can stand above or below the compound they belong to. Calls of active or inactive are those of the source.

What was measured:
Albumin = Albumin (Bos taurus, UniProt P02769); assay: Counterscreen for inhibitors of T-cell receptor (TCR)-CD3 interaction: Fluorescence-based biochemical high throughput dose response assay to identify inhibitors of T-cell receptor (TCR)-CD3 interaction using a TAMRA-labeled BSA probe.; format: functional
[1] = blockade of melanocortin 4 receptor signaling – cell-based, plate reader, cherry pick, counter-screen for LGR2 antagonist project, dose response (AID 743444); format: functional;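 note: transfected HEK 293 cells stimulated with alpha-MSH peptide; potency of inhibitors of the alpha-MSH evoked signal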
[2] = blockers of bursicon-stimulated LGR2 cAMP reporter – cell-based, HEK293, CRE-luciferase reporter, cherry pick, set 2, dose response (AID 743343); format: functional;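 note: transfected cells were stimulated with diluted bursicon conditioned medium after compound addition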
[3] = toxicity toward HepG2 liver cells – cell-based, plate reader, cherry-pick, antagonist series, cytotoxicity control, dose response (AID 743416); format: functional
[4] = viability loss in HEK293 cells – cell-based, plate reader, cherry-picked samples, cytotoxicity control, dose response (AID 743446); format: functional
[5] = target: T1, DNA repair protein RAD52 homolog (Homo sapiens, UniProt P43351); format: functional, biochemical
T1 sequence (P43351 whole entry): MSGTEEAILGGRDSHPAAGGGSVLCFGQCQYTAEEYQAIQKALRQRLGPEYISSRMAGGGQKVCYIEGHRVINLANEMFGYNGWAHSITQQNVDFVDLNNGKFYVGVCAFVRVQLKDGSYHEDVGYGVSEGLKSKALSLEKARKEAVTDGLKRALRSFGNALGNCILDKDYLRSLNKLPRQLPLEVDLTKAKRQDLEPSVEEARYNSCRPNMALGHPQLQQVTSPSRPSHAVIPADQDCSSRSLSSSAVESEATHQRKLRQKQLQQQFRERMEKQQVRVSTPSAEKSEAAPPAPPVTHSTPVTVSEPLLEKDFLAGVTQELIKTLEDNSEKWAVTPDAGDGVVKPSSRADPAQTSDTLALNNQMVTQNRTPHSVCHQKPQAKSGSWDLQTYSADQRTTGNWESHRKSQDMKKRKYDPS

[6] = target: SWI/SNF-related matrix-associated actin-dependent regulator of chromatin subfamily A member 2 (Homo sapiens, UniProt P51531); assay: Luminescence-based cell-based high throughput dose response assay to identify activators of the function of SWI/SNF related, matrix associated, actin dependent regulator of chromatin, subfamily a, member 2 (SMARCA2, BRM).; format: functional
SWI/SNF-related matrix-associated actin-dependent regulator of chromatin subfamily A member 2, sequence (P51531 whole entry): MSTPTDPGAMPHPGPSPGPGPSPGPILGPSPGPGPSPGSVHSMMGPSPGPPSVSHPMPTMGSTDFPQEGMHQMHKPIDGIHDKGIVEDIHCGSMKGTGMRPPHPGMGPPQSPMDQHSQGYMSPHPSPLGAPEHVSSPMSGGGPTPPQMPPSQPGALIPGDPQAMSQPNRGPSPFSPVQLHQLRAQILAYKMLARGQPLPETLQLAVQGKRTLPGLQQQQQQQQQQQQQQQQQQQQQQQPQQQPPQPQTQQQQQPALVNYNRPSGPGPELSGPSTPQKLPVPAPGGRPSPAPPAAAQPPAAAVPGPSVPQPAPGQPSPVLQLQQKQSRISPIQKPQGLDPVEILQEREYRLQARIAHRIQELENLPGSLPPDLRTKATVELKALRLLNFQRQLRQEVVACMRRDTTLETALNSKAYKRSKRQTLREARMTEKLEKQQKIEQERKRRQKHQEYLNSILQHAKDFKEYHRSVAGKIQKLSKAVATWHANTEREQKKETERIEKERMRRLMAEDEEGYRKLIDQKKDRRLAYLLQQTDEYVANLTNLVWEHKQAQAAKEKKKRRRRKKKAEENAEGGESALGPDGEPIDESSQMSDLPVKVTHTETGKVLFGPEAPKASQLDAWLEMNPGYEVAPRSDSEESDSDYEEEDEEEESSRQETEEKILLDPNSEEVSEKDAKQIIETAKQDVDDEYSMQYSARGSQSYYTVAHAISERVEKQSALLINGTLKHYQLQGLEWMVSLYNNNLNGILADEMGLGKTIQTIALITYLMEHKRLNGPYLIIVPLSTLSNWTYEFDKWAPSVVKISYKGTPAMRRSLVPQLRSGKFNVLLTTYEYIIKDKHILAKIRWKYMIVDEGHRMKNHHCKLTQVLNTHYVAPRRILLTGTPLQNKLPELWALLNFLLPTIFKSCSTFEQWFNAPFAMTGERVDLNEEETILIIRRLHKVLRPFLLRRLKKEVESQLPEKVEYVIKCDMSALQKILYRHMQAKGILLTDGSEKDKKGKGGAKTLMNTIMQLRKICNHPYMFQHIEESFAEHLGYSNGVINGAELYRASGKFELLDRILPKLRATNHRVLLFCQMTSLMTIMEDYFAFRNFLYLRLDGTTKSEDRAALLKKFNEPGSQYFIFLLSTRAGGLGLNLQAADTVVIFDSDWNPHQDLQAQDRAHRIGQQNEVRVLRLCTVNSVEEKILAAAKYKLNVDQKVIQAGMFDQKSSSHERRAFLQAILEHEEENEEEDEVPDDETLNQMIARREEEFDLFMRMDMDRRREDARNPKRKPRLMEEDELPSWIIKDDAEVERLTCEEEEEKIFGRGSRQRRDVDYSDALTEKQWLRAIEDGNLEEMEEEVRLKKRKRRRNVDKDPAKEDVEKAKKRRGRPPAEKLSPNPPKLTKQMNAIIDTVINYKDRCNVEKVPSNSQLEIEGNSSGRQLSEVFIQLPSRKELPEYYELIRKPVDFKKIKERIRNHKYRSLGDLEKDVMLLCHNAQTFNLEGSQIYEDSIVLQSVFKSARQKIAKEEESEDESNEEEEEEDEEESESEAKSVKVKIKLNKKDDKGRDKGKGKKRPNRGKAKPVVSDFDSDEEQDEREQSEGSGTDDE

[7] = Counterscreen for activators of the function of SWI/SNF related, matrix associated, actin dependent regulator of chromatin, subfamily a, member 2 (SMARCA2, BRM): Luminescence-based cell-based high throughput dose response assay to identify non-selective compounds using the VP16 reporter assay.; format: functional
[8] = target: DNA repair and recombination protein RAD54-like (Homo sapiens, UniProt Q92698); assay: RAD54 Holliday junction migration blockers – biochemical, fluorescence, cherry-picked samples, dose series, confirmation (AID 651657); format: functional
Cytochrome P450 2C19 = Cytochrome P450 2C19 (Homo sapiens, UniProt P33261); assay: Cytochrome panel assay with activity outcomes. Panel member name: p450-cyp2c19 Compounds with AC50 equal or less than 10 uM are considered active; format: functional; settings: read-out: AC50
Cytochrome P450 3A4 = Cytochrome P450 3A4 (Homo sapiens, UniProt P08684);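 note: CYP3A4 tested as one member of a cytochrome P450 panel screen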
[9] = viability loss in HEK293T cells – cell-based, cherry-picks, cytotoxicity control for HIV Vif inhibitor project, dose response (AID 652208); format: functional
[10] = target: T2, Low molecular weight phosphotyrosine protein phosphatase (Homo sapiens, UniProt P24666); format: functional; settings: read-out: IC50_Mean
T2 sequence (P24666 whole entry): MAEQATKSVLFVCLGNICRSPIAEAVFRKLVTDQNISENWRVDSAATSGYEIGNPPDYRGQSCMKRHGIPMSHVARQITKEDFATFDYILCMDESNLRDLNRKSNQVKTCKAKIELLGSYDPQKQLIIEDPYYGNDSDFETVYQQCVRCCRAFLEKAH

[11] = target: T2, Low molecular weight phosphotyrosine protein phosphatase; format: functional; settings: read-out: IC50_Mean; remark: listed apart in the source
[12] = target: Scavenger receptor class B member 1 (Mus musculus, UniProt Q61009); assay: blockers of DiI-HDL lipid transfer via SR-BI – cell-based, ldlA[mSR-BI] CHO, DiI fluorescence, dry powder, set 10, dose response (AID 624029); format: functional
[13] = target: Nuclear receptor subfamily 5 group A member 2 (Homo sapiens, UniProt O00482); format: functional, cell-based;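 note: HEK293T cells transfected with LRH-1 and a StAR promoter luciferase reporter; potency for inhibitors that lower LRH-1 driven reporter light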
[14] = nonselective StAR promoter luciferase inhibitors – cell-based, luminescence, luciferase reporter, counter-screen for LRH-1 inverse agonist project, dose response (AID 651969); format: functional
Steroidogenic factor 1 = Steroidogenic factor 1 (Homo sapiens, UniProt Q13285); assay: Counterscreen for inverse agonists of the liver receptor homolog-1 (LRH-1; NR5A2): Luminescence-based cell-based high throughput dose response assay to identify inverse agonists of the Steroidogenic Factor 1 Nuclear Receptor (SF1; NR5A1).; format: functional
Genome polyprotein = Genome polyprotein (dengue virus type 2, UniProt P29990); assay: flavivirus cap methylation enzyme inhibition – biochemical, confirmation dose response, primary screen (AID 588689); format: functional
Fatty acid synthase [15] = target: T3, Fatty acid synthase (Homo sapiens, UniProt P49327); assay: inhibition of human FAS-TE enzyme activity – biochemical, endpoint fluorescence intensity, uHTS hits, dose response (AID 624327); format: functional;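 note: fluorescence from hydrolysis of an O-methyl fluorescein acyl ester substrate by the enzyme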
T3 sequence (P49327 whole entry): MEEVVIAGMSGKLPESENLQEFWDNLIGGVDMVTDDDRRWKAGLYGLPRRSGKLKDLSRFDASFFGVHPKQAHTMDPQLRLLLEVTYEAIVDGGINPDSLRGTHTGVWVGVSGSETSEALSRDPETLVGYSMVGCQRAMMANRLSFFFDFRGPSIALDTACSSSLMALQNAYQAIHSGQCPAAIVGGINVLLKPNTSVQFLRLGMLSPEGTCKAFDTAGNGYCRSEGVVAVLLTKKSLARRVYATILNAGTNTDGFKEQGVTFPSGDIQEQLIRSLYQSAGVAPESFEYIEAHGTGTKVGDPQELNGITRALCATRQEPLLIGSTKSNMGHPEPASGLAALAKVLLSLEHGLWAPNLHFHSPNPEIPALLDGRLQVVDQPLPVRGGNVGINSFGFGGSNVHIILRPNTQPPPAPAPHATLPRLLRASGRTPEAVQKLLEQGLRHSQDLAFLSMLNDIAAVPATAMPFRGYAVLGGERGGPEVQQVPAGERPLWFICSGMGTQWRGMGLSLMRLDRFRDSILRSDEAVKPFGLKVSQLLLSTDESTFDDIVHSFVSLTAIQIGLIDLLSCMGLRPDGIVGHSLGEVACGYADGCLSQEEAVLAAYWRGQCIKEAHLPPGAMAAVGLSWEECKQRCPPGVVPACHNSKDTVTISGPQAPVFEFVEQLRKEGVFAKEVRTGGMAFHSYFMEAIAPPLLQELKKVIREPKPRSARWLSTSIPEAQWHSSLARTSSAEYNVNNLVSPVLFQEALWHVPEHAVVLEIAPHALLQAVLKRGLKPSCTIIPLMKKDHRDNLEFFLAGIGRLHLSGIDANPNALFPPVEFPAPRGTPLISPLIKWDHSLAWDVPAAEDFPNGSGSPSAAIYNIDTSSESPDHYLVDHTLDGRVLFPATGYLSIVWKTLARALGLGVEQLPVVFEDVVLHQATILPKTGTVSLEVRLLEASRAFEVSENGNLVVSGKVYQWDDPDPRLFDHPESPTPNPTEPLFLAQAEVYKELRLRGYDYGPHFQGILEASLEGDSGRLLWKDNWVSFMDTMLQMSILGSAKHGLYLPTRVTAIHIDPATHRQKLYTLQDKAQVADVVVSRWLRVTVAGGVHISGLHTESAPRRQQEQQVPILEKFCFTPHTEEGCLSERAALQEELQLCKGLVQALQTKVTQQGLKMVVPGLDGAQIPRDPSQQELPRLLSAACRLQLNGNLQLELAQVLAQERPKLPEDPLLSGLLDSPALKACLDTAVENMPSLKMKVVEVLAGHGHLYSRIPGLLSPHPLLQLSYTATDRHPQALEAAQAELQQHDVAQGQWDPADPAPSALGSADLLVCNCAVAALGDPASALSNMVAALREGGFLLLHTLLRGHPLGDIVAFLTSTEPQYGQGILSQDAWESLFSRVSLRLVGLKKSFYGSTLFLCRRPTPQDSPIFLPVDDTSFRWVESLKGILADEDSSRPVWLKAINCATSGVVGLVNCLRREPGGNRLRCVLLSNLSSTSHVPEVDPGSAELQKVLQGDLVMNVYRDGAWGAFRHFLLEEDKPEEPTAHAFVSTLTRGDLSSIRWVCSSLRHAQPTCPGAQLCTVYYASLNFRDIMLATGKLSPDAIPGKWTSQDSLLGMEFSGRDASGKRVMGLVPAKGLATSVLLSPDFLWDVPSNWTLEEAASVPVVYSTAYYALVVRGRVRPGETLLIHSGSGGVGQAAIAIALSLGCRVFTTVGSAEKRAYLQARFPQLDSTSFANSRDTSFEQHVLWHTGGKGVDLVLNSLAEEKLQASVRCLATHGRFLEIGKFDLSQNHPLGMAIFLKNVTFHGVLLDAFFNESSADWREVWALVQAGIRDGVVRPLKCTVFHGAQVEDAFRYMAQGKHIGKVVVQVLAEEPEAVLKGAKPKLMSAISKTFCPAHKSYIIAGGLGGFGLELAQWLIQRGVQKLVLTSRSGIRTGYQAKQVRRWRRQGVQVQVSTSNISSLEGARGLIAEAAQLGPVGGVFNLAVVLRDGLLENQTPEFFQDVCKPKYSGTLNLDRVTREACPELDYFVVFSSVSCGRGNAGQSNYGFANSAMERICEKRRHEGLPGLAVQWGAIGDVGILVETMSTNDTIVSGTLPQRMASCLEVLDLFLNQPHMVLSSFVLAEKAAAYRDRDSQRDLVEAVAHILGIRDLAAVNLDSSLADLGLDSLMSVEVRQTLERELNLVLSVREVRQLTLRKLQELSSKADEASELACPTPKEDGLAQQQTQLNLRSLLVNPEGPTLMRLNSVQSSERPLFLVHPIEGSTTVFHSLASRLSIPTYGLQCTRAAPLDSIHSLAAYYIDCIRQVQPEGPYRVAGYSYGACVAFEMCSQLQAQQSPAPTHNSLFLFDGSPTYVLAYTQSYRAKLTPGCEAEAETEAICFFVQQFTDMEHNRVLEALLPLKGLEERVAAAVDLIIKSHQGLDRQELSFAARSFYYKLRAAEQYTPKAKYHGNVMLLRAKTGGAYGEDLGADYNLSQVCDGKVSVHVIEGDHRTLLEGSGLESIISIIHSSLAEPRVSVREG

[16] = target: Mitochondrial peptide methionine sulfoxide reductase (Bos taurus, UniProt P54149); format: functional;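 note: absorbance read-out, biochemical high-throughput dose-response screen for MsrA inhibitors, confirmatory; recombinant bovine MsrA coupled to E. coli TrxB with NADPH and selenocystamine; potency is for inhibitors of MsrA activity on DMSO substrate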
Mitochondrial peptide methionine sulfoxide reductase, sequence (P54149 whole entry): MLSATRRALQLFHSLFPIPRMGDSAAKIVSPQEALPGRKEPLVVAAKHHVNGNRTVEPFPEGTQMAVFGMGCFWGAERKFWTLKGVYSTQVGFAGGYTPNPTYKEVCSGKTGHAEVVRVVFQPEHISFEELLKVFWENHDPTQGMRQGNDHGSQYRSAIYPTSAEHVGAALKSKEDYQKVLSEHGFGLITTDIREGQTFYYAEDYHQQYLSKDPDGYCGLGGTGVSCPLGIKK

[17] = target: T4, Rac GTPase-activating protein 1 (Homo sapiens, UniProt Q9H0H5); assay: blockers of MgcRacGAP-driven Rac1 GTP hydrolysis – biochemical, ADP Hunter fluorescence, primary and confirmatory, confirmation (AID 624330); format: functional
T4 sequence (Q9H0H5 whole entry): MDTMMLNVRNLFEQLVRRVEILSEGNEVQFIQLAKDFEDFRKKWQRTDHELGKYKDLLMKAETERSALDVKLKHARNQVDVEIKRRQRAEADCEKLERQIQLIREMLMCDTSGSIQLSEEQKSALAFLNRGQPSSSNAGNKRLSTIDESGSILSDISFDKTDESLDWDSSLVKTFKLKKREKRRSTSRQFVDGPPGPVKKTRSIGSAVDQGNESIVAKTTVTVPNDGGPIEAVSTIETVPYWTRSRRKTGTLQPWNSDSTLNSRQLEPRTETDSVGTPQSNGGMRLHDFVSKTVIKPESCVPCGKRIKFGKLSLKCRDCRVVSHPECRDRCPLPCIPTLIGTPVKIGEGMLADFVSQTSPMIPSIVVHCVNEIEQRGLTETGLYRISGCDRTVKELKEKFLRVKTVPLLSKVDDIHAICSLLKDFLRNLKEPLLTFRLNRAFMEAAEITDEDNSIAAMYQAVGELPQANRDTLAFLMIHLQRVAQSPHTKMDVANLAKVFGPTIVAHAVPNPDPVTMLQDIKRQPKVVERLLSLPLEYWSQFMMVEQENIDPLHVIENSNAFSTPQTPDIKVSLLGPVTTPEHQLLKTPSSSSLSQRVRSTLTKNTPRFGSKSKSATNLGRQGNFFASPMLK

Fatty acid synthase [18] = target: T3, Fatty acid synthase; assay: inhibition of human FAS-TE enzyme activity – biochemical, kinetic fluorescence intensity, dose response (AID 624326); format: functional;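 note: rate of fluorescence rise from hydrolysis of a fluorogenic O-methyl fluorescein ester substrate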
[19] = target: T5, Sentrin-specific protease 1 (Homo sapiens, UniProt Q9P0U3); assay: SENP1 catalytic domain blockers, concentration series – biochemical, kinetic FRET, dose response (AID 651697); format: functional; settings: read-out: IC50_Mean
T5 sequence (Q9P0U3 whole entry, the tested form may be a part): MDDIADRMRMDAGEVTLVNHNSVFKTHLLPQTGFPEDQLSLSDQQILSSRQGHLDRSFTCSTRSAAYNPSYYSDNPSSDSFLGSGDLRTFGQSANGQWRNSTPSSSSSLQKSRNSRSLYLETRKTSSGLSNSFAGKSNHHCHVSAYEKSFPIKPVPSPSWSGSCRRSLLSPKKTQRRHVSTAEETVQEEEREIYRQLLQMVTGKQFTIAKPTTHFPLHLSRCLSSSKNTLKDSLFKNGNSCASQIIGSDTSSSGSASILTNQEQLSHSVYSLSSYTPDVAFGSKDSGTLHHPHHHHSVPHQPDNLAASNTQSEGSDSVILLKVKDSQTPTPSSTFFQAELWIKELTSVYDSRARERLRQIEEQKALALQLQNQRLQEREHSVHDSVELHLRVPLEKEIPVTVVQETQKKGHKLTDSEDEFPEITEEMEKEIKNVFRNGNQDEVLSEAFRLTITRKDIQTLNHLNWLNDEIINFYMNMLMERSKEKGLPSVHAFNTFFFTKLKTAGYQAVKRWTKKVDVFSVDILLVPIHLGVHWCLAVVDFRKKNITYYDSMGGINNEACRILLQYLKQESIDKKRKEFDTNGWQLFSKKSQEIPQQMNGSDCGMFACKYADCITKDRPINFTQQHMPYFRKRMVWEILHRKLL

[20] = target: T6, Corticotropin-releasing factor receptor 2/Corticotropin-releasing factor-binding protein (Homo sapiens, UniProt P24387+Q13324); assay: activators of CRF receptor 2 with binding protein – uHTS hits, confirmation (AID 602473); format: functional; settings: read-out: EC50_Mean
T6 sequence (Q13324 whole entry): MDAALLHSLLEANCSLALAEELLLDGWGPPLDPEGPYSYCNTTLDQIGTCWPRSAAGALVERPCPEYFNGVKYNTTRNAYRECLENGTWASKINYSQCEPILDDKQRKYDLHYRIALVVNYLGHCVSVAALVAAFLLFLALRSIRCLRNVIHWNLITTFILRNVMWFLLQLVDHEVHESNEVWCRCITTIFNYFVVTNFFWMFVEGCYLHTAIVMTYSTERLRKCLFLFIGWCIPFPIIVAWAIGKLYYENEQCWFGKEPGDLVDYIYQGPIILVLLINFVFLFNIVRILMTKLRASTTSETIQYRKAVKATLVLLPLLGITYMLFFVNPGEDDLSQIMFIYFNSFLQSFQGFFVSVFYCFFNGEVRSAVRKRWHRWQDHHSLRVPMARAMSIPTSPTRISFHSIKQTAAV
T6 sequence (P24387 whole entry): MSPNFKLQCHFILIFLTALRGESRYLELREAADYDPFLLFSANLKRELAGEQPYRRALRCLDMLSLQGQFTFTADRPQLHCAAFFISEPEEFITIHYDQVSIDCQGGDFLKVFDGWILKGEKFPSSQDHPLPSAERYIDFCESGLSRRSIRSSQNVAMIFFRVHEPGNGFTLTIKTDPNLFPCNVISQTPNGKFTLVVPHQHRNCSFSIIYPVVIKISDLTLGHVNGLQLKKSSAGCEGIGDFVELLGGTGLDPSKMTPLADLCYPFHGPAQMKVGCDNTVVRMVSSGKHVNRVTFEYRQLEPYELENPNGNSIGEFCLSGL

[21] = target: T6, Corticotropin-releasing factor receptor 2/Corticotropin-releasing factor-binding protein; assay: Dose Response confirmation of uHTS hits for small molecule antagonists of the CRF-binding protein and CRF-R2 receptor complex.; format: functional; settings: read-out: IC50_Mean
[22] = target: T5, Sentrin-specific protease 1; assay: Dose response confirmation of small molecule inhibitors of the catalytic domain of the SUMO protease, SENP1 in a FRET assay.; format: functional; settings: read-out: IC50_Mean
[23] = target: Hepatocyte nuclear factor 4-alpha (Homo sapiens, UniProt P41235); format: functional, cell-based;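 note: biochemical luminescence-based dose-response counterscreen measuring inhibition of HNF4 dimerization, run alongside a screen for blockers of ABHD5–perilipin-5 interaction; split luciferase complementation of HNF4 fusion proteins in cell lysate measuring dimerization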
[24] = anti-trypanosomal activity in BESM host cells – imaging, CA-I/72 strain, bovine embryo skeletal muscle, dry powder, dose response (AID 651885); format: functional, cell-based
[25] = T. cruzi growth inhibition in host cells, dose response, cell-based, plate reader, dry powder, set 2 (AID 652275); format: functional
Protein Wnt-3a = Protein Wnt-3a (Mus musculus, UniProt P27467); assay: SAR analysis of small molecule antagonists of Gli-SUFU in a Wnt3a luminescent reporter assay.; format: functional

AC50 [12]: 61 µM (active)
Compound: Cc1ccc(OCc2cc(C(=O)N3CCCC(O)C3)no2)cn1 (stereo unspecified)

IC50 [19]: 13.9 µM (active)
EC50 [20]: > 53 µM (inactive)
IC50 [21]: > 47.1 µM (inactive)
IC50 [22]: 13.2 µM (active)
Compound: C=CCNC(=O)c1cccc2c1C(=O)c1ccc(N3CCOCC3)cc1S2(=O)=O

IC50 [23]: 2.93 µM (active)
Compound: CC(c1nc2ccccc2[nH]1)n1c(=O)c(-c2ccco2)nc2ccccc21 (stereo unspecified)

IC50 (Protein Wnt-3a): > 21.8 µM (inactive)
Compound: O=C(Nc1cc(N2CCCCC2)ncn1)c1ccc2ccccc2c1

More lines, now with the values behind:

Compound: NNC(=O)c1[nH]cnc1C(=O)Nc1ccccn1
IC50 (Albumin): > 94.2 µM (inactive)

Compound: O=C(NC1(Cc2ccccc2)CCN(Cc2ccc(-c3ccccc3)cc2)C1=O)c1ccccc1 (stereo unspecified)
AC50 [1]: 10.1 µM (active)
AC50 [2]: 5.14 µM (active)
AC50 [3]: > 52 µM (inactive)
AC50 [4]: > 52 µM (inactive)

Compound: Cc1ccc(-c2nc(NCCN(C)C)c3ccccc3n2)cc1
AC50 [5]: 8.93 µM (active)
EC50 [6]: 37.1 µM (inactive)
EC50 [7]: > 91.2 µM (inactive)
AC50 [8]: 12.6 µM (active)

Compound: COC(=O)c1ccc(Oc2coc3cc(OCc4cnn(-c5ccccc5)c4)ccc3c2=O)cc1
AC50 (Cytochrome P450 2C19): 0.708 µM (inconclusive)
AC50 (Cytochrome P450 3A4): inconclusive
AC50 [9]: 38.3 µM (active)

Compound: CCOCCCNc1nc(-c2ccccc2)nc2ccccc12
IC50 [10]: 21.1 µM (inactive)
IC50 [11]: 12.3 µM (active)

Compound: CCn1cc(Br)c(C(=O)Nc2ccccc2C(=O)OC)n1
IC50 [13]: 35.9 µM (inactive)
IC50 [14]: 35.9 µM (inactive)
IC50 (Steroidogenic factor 1): 10.5 µM (inactive)

Compound: CSc1nc(N)c(N=Nc2ccc([As](=O)(O)O)cc2)c(O)n1
IC50 (Genome polyprotein): 57.3 µM (active)
IC50 (Fatty acid synthase [15]): 11.4 µM (active)
IC50 [16]: 9.91 µM (active)
IC50 [17]: 39.9 µM (active)
IC50 (Fatty acid synthase [18]): 4.99 µM (active)

Compound: Cc1cc(C(=O)Nc2cccc3c2O[C@@H](CN(C)Cc2ccc(Oc4ccccc4)cc2)[C@H](C)CN([C@@H](C)CO)C3=O)n(C)n1
IC50 [24]: > 20 µM (inactive)
AC50 [25]: 1.28 µM (active)
